Data set [1] concerns HGF-1 cells. The data set can be described thus: TNF-α generation under CSE induction (ELISA). The class given is cell-based. As to conditions: 24 h pre-incubation, 5% CSE 24 h, vs control group (FIG. 2). The method, then: Ectoine (purchased from Bloomage Biotechnology) was weighed separately and dissolved in HGF-1 cell complete culture medium (containing 10% FBS, 1% penicillin-streptomycin), to prepare 100 µg/mL and 500 µg/mL ectoine solutions, respectively.
(§1) Preparation of Cigarette Smoke Extract (CSE): The gas collection bottle was sterilized and the HGF-1 cell culture medium was filled into the gas collection bottle. A certain brand of cigarette was fixed on the long tube end of the gas collection bottle, and the short tube end was connected to a vacuum pump. The vacuum pump was turned on and the cigarette was lighted, so that the cigarette smoke entered the culture medium from the long tube end. In this way, cigarette smoke extract was prepared.
Test method: HGF-1 cells were seeded into a 96-well plate at a density of 30,000 cells/well and cultured at 37°C under 5% CO2 for later use. […] The secretion of TNF-α was detected using an ELISA detection kit. At the same time as the ELISA detection, cell lysate was added to the 96-well plate and centrifugation was performed, and the supernatant was taken for BCA protein quantification. After homogenization, the control group was used as a benchmark, and the relative content of TNF-α was expressed as a percentage. […]
(An ELISA detects its analyte on a solid surface through an enzyme-linked reagent.)

Data set [2] relates to CA9-22 cells. The data set can be described thus: Inflammatory factor IL-6 induced by Pg.LPS (ELISA). The class given is cell-based. As to conditions: vs Pg.LPS alone (FIG. 3). The method, then: Experimental materials: Porphyromonas gingivalis lipopolysaccharide (Pg.LPS) (purchased from Sigma), ectoine (from Bloomage Biotechnology Corporation Limited), and DMEM culture medium.
Experimental sample solution: ectoine and Porphyromonas gingivalis lipopolysaccharide were diluted with DMEM culture medium to prepare an experimental sample solution containing a final concentration of 0.001 wt% ectoine + 1 µg/ml Pg.LPS.
CA9-22 cells were cultured in a 24-well plate. After complete attachment, the above experimental sample was added. After 24 hours, the cell culture supernatant was collected. The absorbance at […] and 570 nm was detected by enzyme-linked immunosorbent assay (ELISA), and the concentration of inflammatory factor IL-6 was calculated based on the absorbance.
According to the method in Example 2.1, an experimental sample solution containing a final concentration of 0.01wt% ectoine + 1µg/ml Pg.LPS was prepared, and the concentration of the inflammatory factor IL-6 was calculated. Other experimental processes not mentioned were the same as those in Example 2.1.
According to the method in Example 2.1, an experimental sample solution containing a final concentration of 0.05wt% ectoine+1µg/ml Pg.LPS was prepared, and the concentration of the inflammatory factor IL-6 was calculated. Other experimental processes not mentioned were the same as those in Example 2.1.
Statistical analysis: t-test statistical analysis was used to compare each group with group treated with Pg.LPS alone. * indicates p<0.05, which is considered to be of statistical difference. ** indicates p<0.01, which is considered to be of significant statistical difference, and *** indicates p<0.001, which is considered to be of extremely significant statistical difference.
Experimental materials: Porphyromonas gingivalis lipopolysaccharide (Pg.LPS) (purchased from Sigma), ACHA (from Bloomage Biotechnology Corporation Limited), and DMEM culture medium. […]

For data set [3], the system named is CA9-22 cells. The data set can be described thus: Cell activity (MTT) of acetaldehyde-treated cells with ectoine. The class given is cell-based. Here is the method: Experimental sample solution: ectoine powder and 17.7 M acetaldehyde were diluted with DMEM culture medium respectively, and then the two were mixed in different ratios to prepare experimental sample solutions with different final concentrations.
The absorbance of each well at 550nm was detected by a microplate reader. […] NT was taken as 100%, and the ratio of T/NT of the sample well was taken as the cell activity. The larger the cell activity %, the better the effect of inhibiting cell damage caused by acetaldehyde. Table 4 Cell activity results

Data set [4] relates to CA9-22 cells. In words: in vitro. Here is the method: (§2) Experimental sample solutions: ectoine powder was dissolved in DMEM culture medium to prepare experimental sample solutions with different final concentrations, and the concentrations were shown in Table 2.
(§3) Methods: CA9-22 cells purchased from ATCC were co-cultured with different experimental sample solutions for 1 day, then the experimental sample solution was removed and MTT was added. After 3 hours, the supernatant was carefully sucked out and dimethyl sulfoxide (DMSO) was added. The absorbance of each well at 550 nm was detected by a microplate reader. The untreated well was used as the control, the absorbance of the sample well was defined as T, and the absorbance of the untreated well was defined as NT. NT was taken as 100%, and the ratio of T/NT of the sample wells was taken as the cell activity. Table 2 Cell activity results

Another data set can be described thus: in vitro. As to conditions: human, ca9-22 cells, Cell activity. Here is the method: as §2, §3
Data set [5] relates to HGF-1 cells. In words: ROS generation under CSE induction (DCFH-DA fluorescence). The conditions noted are these: 24 h pre-incubation, 5% CSE 3 h, vs control group (FIG. 1). In kind it is cell-based. Here is the method: Ectoin (purchased from Bloomage Biotechnology) was weighed and dissolved in HGF-1 cell (gingival fibroblast) complete culture medium (containing 10% FBS, 1% penicillin-streptomycin), to prepare 100 µg/mL and 500 µg/mL ectoine solutions, respectively.
as §1
Test method: Preparation of a DCFH-DA solution with a final concentration of 10 µM using phenol red-free culture medium.
HGF-1 cells were seeded into a 96-well plate at a density of 30,000 cells/well and cultured at 37°C under 5% CO2 for later use. After 24 hours for cell attachment, a blank group, a control group, and an experimental group containing 100µg/mL and […] ectoine, respectively, were set up, with 100µL/well. […] The fluorescence intensity was measured at an excitation wavelength of 485nm and an emission wavelength of 538nm. […]

Data set [6] in a line: Cell activity (MTT) after treatment with acetaldehyde alone. The class given is cell-based. As to conditions: human, ca9-22 cells, 1 day, T/NT. An excerpt: The absorbance of each well at 550nm was detected by a microplate reader. […] NT was taken as 100%, and the ratio of T/NT of the sample well was taken as the cell activity, the results of which are shown in Table 3. On the basis of meeting the requirements of significant difference, the greater the cell activity %, the better the effect of inhibiting cell damage caused by acetaldehyde. Table 3 Cell activity results

Take `CC1=NC(C(=O)O)CCN1` (stereo not shown) [ectoine, 2-methyl-1,4,5,6-tetrahydropyrimidin-4-carboxylic acid]: the “TNF-α content after CSE irritation” value in the data set with HGF-1 cells [1] (100µg/mL ectoine) and with HGF-1 cells [1] (500µg/mL ectoine) was “can inhibit the increase of TNF-α content” in each case. The “concentration of IL-6 caused by Pg.LPS” value with CA9-22 cells [2] (0.001wt% ectoine + 1 µg/ml Pg.LPS, 24 h (Example 2.1)) is listed as “can significantly reduce the concentration of IL-6”; with CA9-22 cells [2] (0.01wt% ectoine + 1µg/ml Pg.LPS, 24 h (Example 2.2)), “can significantly reduce the concentration of IL-6”; with CA9-22 cells [2] (0.05wt% ectoine + 1µg/ml Pg.LPS, 24 h (Example 2.3)) it was “can significantly reduce the concentration of IL-6”. Further, in the data set on CA9-22 cells [3] (Acetaldehyde 0.02 M + ectoine 0.02-0.1 wt%, vs acetaldehyde-treated group), the “cell activity of CA9-22 after the addition of ectoine” value is “increased”. In addition, the cytotoxicity result with CA9-22 cells [4] is listed as “no cytotoxicity”. Also, the viability at 24 h in the data set “in vitro” came to 112%. Moreover, the “ROS content after CSE oxidative irritation” value in the data set with HGF-1 cells [5] (100µg/mL ectoine) and with HGF-1 cells [5] (200µg/mL ectoine) was “can inhibit the increase of ROS content” each time.
On to `CC=O` [Acetaldehyde, acetaldehyde], for which the viability at 24 h, 100 µM in data set [6] (Acetaldehyde 0.0001M) was found to be 96%. Moreover, in data set [6] (Acetaldehyde 0.001M), the viability at 24 h, 1000 µM was determined as 93%. The viability at 24 h, 5000 µM in data set [6] (Acetaldehyde 0.005M) was 93%. Moreover, the viability at 24 h, 10000 µM in data set [6] (Acetaldehyde 0.01M) amounted to 89%. The viability at 24 h, 20000 µM in data set [6] (Acetaldehyde 0.02M) is 70%. The viability at 20000 µM in the data set on CA9-22 cells [3] (Homo sapiens, Ca9-22, 24 h, read-out: Cell activity) was 70%.

The values are drawn from patent EP4643860A1, “USE OF ECTOIN OR DERIVATIVE THEREOF IN PREVENTING AND/OR AMELIORATING CELL DAMAGE CAUSED BY IRRITANT, AND METHOD” (Bloomage Biotechnology Corporation Limited, priority 2022, dated 2024).
